From US11926623B2, “Heterocycle derivatives as pesticides” (Bayer Aktiengesellschaft, priority 2018, dated 2024)
Read-outs that look alike come from different tables or passages of the source. Values belong to the molecule of their own block, whether it stands above or below them.

Legend:
[1] = tested on: Ctenocephalides felis; assay: Ctenocephalides felis oral test; type: in vivo; conditions: 48 h, 100 ppm in citrated cattle blood, unfed adult cat fleas, after 2 days, read-out: efficacy (kill in %)
Procedure: Ctenocephalides felis—Oral Test [table] To produce a suitable active compound preparation, 10 mg of active compound are mixed with 0.5 ml of dimethyl sulfoxide. Dilution with citrated cattle blood gives the desired concentration. About 20 unfed adult cat fleas (Ctenocephalides felis) are placed into a chamber which is closed at the top and bottom with gauze. A metal cylinder whose bottom end is closed with parafilm is placed onto the chamber. The cylinder contains the blood/active compound formulation, which can be imbibed by the fleas through the parafilm membrane. After 2 days, the kill in % is determined. 100% means that all of the fleas have been killed; 0% means that none of the fleas have been killed.

[2] = tested on: Myzus persicae; assay: Myzus persicae spray test; type: in vivo; conditions: foliar, 120 h, sprayed Chinese cabbage leaf discs, all stages of the green peach aphid, after 5 days, read-out: efficacy
Procedure: Myzus persicae—Spray Test [table] To produce a suitable active compound preparation, 1 part by weight of active compound is dissolved using the stated parts by weight of solvent and made up with water containing an emulsifier concentration of 1000 ppm until the desired concentration is attained. To produce further test concentrations, the formulation is diluted with emulsifier-containing water. Discs of Chinese cabbage leaves (Brassica pekinensis) infested by all stages of the green peach aphid (Myzus persicae) are sprayed with an active compound formulation of the desired concentration. After 5 days, the efficacy in % is determined. 100% means that all the aphids have been killed; 0% means that no aphids have been killed.

[3] = tested on: Myzus persicae; assay: Myzus persicae oral test; type: in vivo; conditions: 120 h, mixed population of green peach aphids, after 5 days, read-out: efficacy
Procedure: Myzus persicae—Oral Test [table] To produce a suitable preparation of active compound, 1 part by weight of active compound is dissolved using the specified parts by weight of solvent and made up with water until the desired concentration is attained. 50 μl of the active ingredient formulation are transferred into microtitre plates and made up to a final volume of 200 μl with 150 μl of IPL41 insect medium (33%+15% sugar). Subsequently, the plates are sealed with parafilm, which a mixed population of green peach aphids (Myzus persicae) within a second microtitre plate is able to puncture and imbibe the solution through. After 5 days, the efficacy in % is determined. 100% means that all the aphids have been killed; 0% means that no aphids have been killed.

[4] = log P by HPLC on reversed-phase column (C18), EEC Directive 79/831 Annex V.A8; type: physicochemical
Procedure: The log P values were determined according to EEC Directive 79/831 Annex V.A8 by HPLC (high-performance liquid chromatography) on a reversed-phase column (C18) using the following methods: ^[a] […] Calibration was carried out using a homologous series of straight-chain alkan-2-ones (having 3 to 16 carbon atoms) with known log P values. The values between successive alkanones are determined by linear regression.

[5] = tested on: Phaedon cochleariae; assay: Phaedon cochleariae spray test; type: in vivo; conditions: 100 g/ha, sprayed Chinese cabbage leaf discs, mustard beetle larvae, after 7 days
Procedure: Phaedon cochleariae—Spray Test
(§1) To produce a suitable active compound preparation, 1 part by weight of active compound is dissolved using the stated parts by weight of solvent and made up with water containing an emulsifier concentration of 1000 ppm until the desired concentration is attained. To produce further test concentrations, the formulation is diluted with emulsifier-containing water.
Discs of Chinese cabbage leaves (Brassica pekinensis) are sprayed with an active compound formulation of the desired concentration and, after drying, populated with larvae of the mustard beetle (Phaedon cochleariae).
After 7 days, the efficacy in % is determined. 100% means that all the beetle larvae have been killed; 0% means that no beetle larvae have been killed.

[6] = tested on: Spodoptera frugiperda; assay: Spodoptera frugiperda spray test; type: in vivo; conditions: foliar, 168 h, sprayed maize leaf discs, fall armyworm caterpillars, after 7 days, read-out: efficacy
Procedure: Spodoptera frugiperda—Spray Test [table] To produce a suitable active compound preparation, 1 part by weight of active compound is dissolved using the stated parts by weight of solvent and made up with water containing an emulsifier concentration of 1000 ppm until the desired concentration is attained. To produce further test concentrations, the formulation is diluted with emulsifier-containing water. Leaf discs of maize (Zea mays) are sprayed with an active compound formulation of the desired concentration and, after drying, populated with caterpillars of the fall armyworm (Spodoptera frugiperda). After 7 days, the efficacy in % is determined. 100% means that all the caterpillars have been killed; 0% means that no caterpillar has been killed.

[7] = tested on: Boophilus microplus; assay: Boophilus microplus injection test; type: in vivo; conditions: 20 μg/animal, injection into engorged adult female cattle ticks, assessed after 7 days by laying of fertile eggs
Procedure: Boophilus microplus—Injection Test [table] To produce a suitable active compound preparation, 10 mg of active compound are mixed with 0.5 ml of solvent and the concentrate is diluted to the desired concentration with solvent. 1 μl of the active compound solution is injected into the abdomen of 5 engorged adult female cattle ticks (Boophilus microplus). The animals are transferred into dishes and kept in a climate-controlled room. Efficacy is assessed after 7 days by laying of fertile eggs. Eggs which are not visibly fertile are stored in a climate-controlled cabinet until the larvae hatch after about 42 days. An efficacy of 100% means that none of the ticks has laid any fertile eggs; 0% means that all the eggs are fertile.

[8] = tested on: Tetranychus urticae; assay: Tetranychus urticae spray test, OP-resistant; type: in vivo; conditions: 20 g/ha, sprayed bean leaf discs, all stages of the greenhouse red spider mite, after 6 days
Procedure: Tetranychus urticae—Spray Test, OP-Resistant
as §1
Discs of bean leaves (Phaseolus vulgaris) infested with all stages of the greenhouse red spider mite (Tetranychus urticae) are sprayed with an active compound formulation of the desired concentration.
After 6 days, the efficacy in % is determined. 100% means that all the spider mites have been killed; 0% means that no spider mites have been killed.

[9] = tested on: Diabrotica balteata; assay: Diabrotica balteata spray test; type: in vivo; conditions: 168 h, 160 μg/well, sprayed germinated wheat grains, beetle larvae, after 7 days, read-out: efficacy
Procedure: Diabrotica balteata—Spray Test [table] To produce a suitable active compound preparation, 1 part by weight of active compound is dissolved using the stated parts by weight of solvent and made up with water containing an emulsifier concentration of 1000 ppm until the desired concentration is attained. To produce further test concentrations, the formulation is diluted with emulsifier-containing water. Pre-swollen wheat grains (Triticum aestivum) are incubated in a multiwell plate filled with agar and a little water for one day (5 seed grains per well). The germinated wheat grains are sprayed with an active compound preparation of the desired concentration. Subsequently, each cavity is infected with 10-20 beetle larvae of Diabrotica balteata. After 7 days, the efficacy in % is determined. 100% means that all wheat plants have grown as in the untreated, uninfected control; 0% means that no wheat plant has grown.

[10] = LC-UV in the acidic range, formic acid in water / acetonitrile, read-out: log P[acidic]
[11] = LC-UV in the neutral range, ammonium carbonate in water / acetonitrile, read-out: log P[neutral]

chromatographic logP [4, 10]: 2.73
chromatographic logP [4, 11]: 2.72
SMILES: CCS(=O)(=O)c1c(-c2nc3cc(C(F)(F)F)cnc3n2C)nc(C2CC(C3CC3)=NO2)n1C (stereo not shown) [Example I-1, 2-[2-(3-Cyclopropyl-4,5-dihydro-1,2-oxazol-5-yl)-5-(ethylsulfonyl)-1-methyl-1H-imidazol-4-yl]-3-methyl-6-(trifluoromethyl)-3H-imidazo[4,5-b]pyridine]
pest or weed control at 100 ppm [1]: 100%
pest or weed control at 100 g/ha [2]: 100%
pest or weed control at 4 ppm [3]: 100%

chromatographic logP [4, 10]: 3.14
chromatographic logP [4, 11]: 3.07
SMILES: CCS(=O)(=O)c1c(-c2nc3cc(C(F)(F)F)cnc3n2C)nc(-c2ccc(C3(C#N)CC3)cc2)n1C [Example I-5, 1-(4-{5-(Ethylsulfonyl)-1-methyl-4-[3-methyl-6-(trifluoromethyl)-3H-imidazo[4,5-b]pyridin-2-yl]-1H-imidazol-2-yl}phenyl)cyclopropanecarbonitrile]
pest or weed control at 100 ppm [1]: 100%
pest or weed control at 100 g/ha [2]: 100%
pest or weed control at 4 ppm [3]: 100%
efficacy [5]: 100%
pest or weed control at 100 g/ha [6]: 100%

SMILES: CCS(=O)(=O)c1c(-c2nc3cc(C(F)(F)F)cnc3n2C)nc(-c2cnn(C3CC3)c2)n1C [Example I-6]
pest or weed control at 100 ppm [1]: 100%
pest or weed control at 100 g/ha [2]: 100%
pest or weed control at 4 ppm [3]: 100%
efficacy [5]: 100%
efficacy [7]: 95%
pest or weed control at 100 g/ha [6]: 100%

SMILES: CCS(=O)(=O)c1c(-c2nc3cc(C(F)(F)F)cnc3n2C)nc(-c2ccnn2C2CC2)n1C [Example I-7]
pest or weed control at 100 g/ha [2]: 90%
pest or weed control at 4 ppm [3]: 100%
efficacy [5]: 100%

SMILES: CCS(=O)(=O)c1c(-c2nc3cc(C(F)(F)F)cnc3n2C)nc(-c2ccc(C3CC3)s2)n1C [Example I-8]
pest or weed control at 100 ppm [1]: 80%
pest or weed control at 100 g/ha [2]: 100%
pest or weed control at 4 ppm [3]: 100%
pest or weed control at 100 g/ha [6]: 100%

chromatographic logP [4, 10]: 3.46
chromatographic logP [4, 11]: 3.36
SMILES: CCS(=O)(=O)c1c(-c2nc3cc(C(F)(F)F)cnc3n2C)nc(-n2ccc(C3CC3)n2)n1C [Example I-9, 2-[2-(3-Cyclopropyl-1H-pyrazol-1-yl)-5-(ethylsulfonyl)-1-methyl-1H-imidazol-4-yl]-3-methyl-6-(trifluoromethyl)-3H-imidazo[4,5-b]pyridine]
pest or weed control at 100 ppm [1]: 90%
pest or weed control at 100 g/ha [2]: 100%
pest or weed control at 4 ppm [3]: 100%
efficacy [5]: 100%
pest or weed control at 100 g/ha [6]: 100%

SMILES: CCS(=O)(=O)c1c(-c2nc3cc(C(F)(F)F)cnc3n2C)nc(-n2cc(Br)c(C3CC3)n2)n1C [Example I-10]
efficacy [8]: 90%
pest or weed control at 100 ppm [1]: 90%
pest or weed control at 100 g/ha [2]: 90%
pest or weed control at 4 ppm [3]: 100%
efficacy [5]: 100%
efficacy [7]: 90%
pest or weed control at 100 g/ha [6]: 100%

SMILES: CCS(=O)(=O)c1c(-c2nc3cc(C(F)(F)F)cnc3n2C)nc(-c2ccc(-c3ccccc3)s2)n1C [Example I-11]
pest or weed control at 100 ppm [1]: 90%
pest or weed control at 100 g/ha [2]: 90%
pest or weed control at 4 ppm [3]: 100%
pest or weed control at 100 g/ha [6]: 100%

SMILES: CCS(=O)(=O)c1c(-c2nc3cc(C(F)(F)F)cnc3n2C)nc(-c2ccc(C3CC3)nc2)n1C [Example I-14]
pest or weed control at 100 ppm [1]: 90%
pest or weed control at 100 g/ha [2]: 90%
pest or weed control at 4 ppm [3]: 100%
efficacy [5]: 100%
pest or weed control at 100 g/ha [6]: 100%

SMILES: CCS(=O)(=O)c1c(-c2nc3cc(C(F)(F)C(F)(F)F)cnc3n2C)nc(-c2ccc(C3CC3)nc2)n1C [Example I-22]
pest or weed control at 100 g/ha [2]: 90%
pest or weed control at 160 µg/disc, 160 µg/well [9]: 100%
pest or weed control at 4 ppm [3]: 100%
pest or weed control at 100 g/ha [6]: 100%
